# Target: GABA-B receptor (Rattus norvegicus (Rat), UniProt O88871+Q9Z0U4)
# Assay: [35S]GTPgS binding assay, rat cortical membranes, in presence of EC25 GABA
# Format: biochemical
# Details: rat brain cortex membranes; in presence of 1 μM GABA (EC25); positive allosteric modulation
# Procedure: Preparation of Rat Brain Membranes for Native Receptor Assays
# Membranes from rat brain cortex were prepared as described in detail by Olpe et al. and stored at concentrations of 1.66 mg/mL protein at −80° C. until required. (Olpe, H.-R, et al. Eur J Pharmacol 1990; 187: 27-38).
# [^35S] GTPgS Binding Assay
# The composition of the assay mixtures [in a final volume of 200 μL in 96-well U-bottom plates (Greiner) was as follows: 50 mM Tris-HCl buffer, pH 7.7, 10 mM MgCl2, 0.2 mM EGTA, 2 mM CaCl2, 100 mM NaCl, 20 µM guanosine 5′-diphosphate (Sigma), 0.3 nM [^35S]GTPgS (1250 Ci/mmol (PerkinElmer)), and the test compounds at increasing concentrations (from 10 nM up to […]), […] of rat cortical membranes, and a concentration of […], that has been observed in previous experiments to correspond to the EC25, a concentration that gives 25% of the maximal response of GABA. The samples were incubated at room temperature for 60 minutes on a shaker. The incubation was stopped by rapid vacuum filtration over glass-fiber filter plates (UniFilter-96 well, GF/B membrane plates, PerkinElmer) using a 96-well plate harvester (TOMTEK© Harvester). The UniFilter plate was washed five times with ice-cold wash buffer (50 mM Tris-HCl buffer, pH 7.7, 10 mM MgCl2, and 100 mM NaCl. After filtration the plate was dried for 90 minutes at 55° C. The plates were closed on the bottom with black sealing membranes, and liquid scintillation cocktail (35 μL, Betaplate Scint, PerkinElmer) was added to each well. After sealing the top of the plate, an additional incubation step of 90 minutes at room temperature followed before measuring the plate. The amount of membrane-bound [^35S]GTPgS was measured using a 96-well plate reader (Microbeta®, PerkinElmer). Nonspecific binding was measured in the presence of unlabeled 10 μM of GTPgS (Millipore) and without GABA. Basal binding was measured in the absence of 1 μM GABA, and maximal binding was measured in the presence of GABA using 1 mM GABA concentrations.
# Data analysis. The concentration-response curves of compounds of the present disclosure in the presence of EC25 of GABA-B receptor agonist were generated using the GraphPad Prism® program (GraphPad Software, San Diego, Calif.). Data was normalized using basal binding as 0% and maximal binding as 100%. The curves were fitted by nonlinear regression allowing determination of EC50 values from sigmoidal dose-response curves. Each curve was performed using triplicate sample per date point and 10 concentrations.
# Sequence of GABA-B receptor (Q9Z0U4 17-960): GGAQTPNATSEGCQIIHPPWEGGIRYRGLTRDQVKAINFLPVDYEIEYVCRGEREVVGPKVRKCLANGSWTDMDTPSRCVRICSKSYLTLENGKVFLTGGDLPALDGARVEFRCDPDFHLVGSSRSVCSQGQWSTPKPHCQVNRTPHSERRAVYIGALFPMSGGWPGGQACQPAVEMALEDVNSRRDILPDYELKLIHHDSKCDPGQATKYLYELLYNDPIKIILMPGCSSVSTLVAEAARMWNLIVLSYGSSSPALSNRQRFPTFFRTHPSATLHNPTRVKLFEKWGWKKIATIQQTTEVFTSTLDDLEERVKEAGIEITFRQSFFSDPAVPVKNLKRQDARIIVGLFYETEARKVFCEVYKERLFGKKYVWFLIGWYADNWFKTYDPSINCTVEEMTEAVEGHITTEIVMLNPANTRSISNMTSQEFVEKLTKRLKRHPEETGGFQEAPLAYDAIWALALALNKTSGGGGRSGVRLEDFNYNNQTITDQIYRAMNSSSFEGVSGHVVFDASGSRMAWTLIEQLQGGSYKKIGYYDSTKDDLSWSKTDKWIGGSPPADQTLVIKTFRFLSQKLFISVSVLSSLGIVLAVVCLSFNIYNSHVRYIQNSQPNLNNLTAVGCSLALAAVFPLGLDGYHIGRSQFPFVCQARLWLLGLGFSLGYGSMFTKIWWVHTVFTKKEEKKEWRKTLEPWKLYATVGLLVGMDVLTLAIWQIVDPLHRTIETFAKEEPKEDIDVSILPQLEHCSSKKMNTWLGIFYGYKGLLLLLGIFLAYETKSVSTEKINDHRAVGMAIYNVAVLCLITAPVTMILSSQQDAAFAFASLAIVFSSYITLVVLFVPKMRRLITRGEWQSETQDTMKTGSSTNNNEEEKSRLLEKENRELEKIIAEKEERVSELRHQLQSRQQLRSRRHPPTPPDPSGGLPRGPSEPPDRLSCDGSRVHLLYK
# Sequence of GABA-B receptor (O88871 41-940): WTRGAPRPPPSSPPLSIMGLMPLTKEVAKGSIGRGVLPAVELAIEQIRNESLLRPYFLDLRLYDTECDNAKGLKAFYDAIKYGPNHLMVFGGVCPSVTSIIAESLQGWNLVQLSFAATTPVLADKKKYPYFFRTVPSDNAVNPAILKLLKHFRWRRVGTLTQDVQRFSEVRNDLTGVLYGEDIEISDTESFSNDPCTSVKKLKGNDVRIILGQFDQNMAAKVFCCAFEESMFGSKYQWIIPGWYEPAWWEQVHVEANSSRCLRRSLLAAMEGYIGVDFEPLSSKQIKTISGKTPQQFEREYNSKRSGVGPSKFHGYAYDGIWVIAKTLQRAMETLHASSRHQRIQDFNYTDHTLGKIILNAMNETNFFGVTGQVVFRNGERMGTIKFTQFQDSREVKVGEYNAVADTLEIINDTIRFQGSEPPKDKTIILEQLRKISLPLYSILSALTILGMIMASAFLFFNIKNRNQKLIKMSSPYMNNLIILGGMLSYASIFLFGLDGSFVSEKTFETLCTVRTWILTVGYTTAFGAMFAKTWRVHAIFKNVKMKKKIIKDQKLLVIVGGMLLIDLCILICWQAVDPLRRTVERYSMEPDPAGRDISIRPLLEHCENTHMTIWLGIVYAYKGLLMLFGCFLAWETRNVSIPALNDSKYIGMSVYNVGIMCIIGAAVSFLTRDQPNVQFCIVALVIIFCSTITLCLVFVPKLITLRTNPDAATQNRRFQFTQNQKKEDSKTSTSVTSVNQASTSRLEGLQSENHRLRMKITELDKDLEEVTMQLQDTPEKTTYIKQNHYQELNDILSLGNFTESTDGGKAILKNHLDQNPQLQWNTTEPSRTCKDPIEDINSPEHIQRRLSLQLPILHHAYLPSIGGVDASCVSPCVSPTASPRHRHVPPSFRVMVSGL
row,EC50 [nM],SMILES
1,8,"CCC(c1ccc(Cl)cc1)c1cc2nc(C)cc(N3CCCCC3CCO)n2n1 (centres unmarked) [Example 3-1, 2-(1-{2-[1-(4-chlorophenyl)propyl]-5-methylpyrazolo[1,5-a]pyrimidin-7-yl}piperidin-2-yl)ethanol]"
2,14,"CCC(c1ccc(Cl)cc1)c1cc2nc(C)cc(N3CCCC(F)(F)C3)n2n1 (centres unmarked) [Example 3-2, 2-[1-(4-chlorophenyl)propyl]-7-(3,3-difluoropiperidin-1-yl)-5-methylpyrazolo[1,5-a]pyrimidine]"
3,5,"Cc1cc(N2CCCCC2CCO)n2nc(C(c3ccc(Cl)cc3)C(C)C)cc2n1 (centres unmarked) [Example 4-1, 2-(1-{2-[1-(4-chlorophenyl)-2-methylpropyl]-5-methylpyrazolo[1,5-a]pyrimidin-7-yl}piperidin-2-yl)ethanol]"
4,9,"Cc1cc(N2CCCC(F)(F)C2)n2nc(C(c3ccc(Cl)cc3)C(C)C)cc2n1 (centres unmarked) [Example 4-2, 2-[1-(4-chlorophenyl)-2-methylpropyl]-7-(3,3-difluoropiperidin-1-yl)-5-methylpyrazolo[1,5-a]pyrimidine]"
5,3,"CCCC(c1ccc(Cl)cc1)c1cc2nc(C)cc(N3CCCCC3CCO)n2n1 (centres unmarked) [Example 5-1, 2-(1-{2-[1-(4-chlorophenyl)butyl]-5-methylpyrazolo[1,5-a]pyrimidin-7-yl}piperidin-2-yl)ethanol]"
6,7,"CCCC(c1ccc(Cl)cc1)c1cc2nc(C)cc(N3CCCC(F)(F)C3)n2n1 (centres unmarked) [Example 5-2, 2-[1-(4-chlorophenyl)butyl]-7-(3,3-difluoropiperidin-1-yl)-5-methylpyrazolo[1,5-a]pyrimidine]"
7,1820,"Cc1cc(N2CCCCC2CCO)n2nc(Cc3cccc(C(F)(F)F)c3)cc2n1 (centres unmarked) [Example 6-1, 2-(1-{5-methyl-2-[3-(trifluoromethyl)benzyl]pyrazolo[1,5-a]pyrimidin-7-yl}piperidin-2-yl)ethanol]"
8,1080,"Cc1cc(N2CCCCC2CCO)n2nc(CC34CC5CC(CC(C5)C3)C4)cc2n1 (centres unmarked) [Example 7-1, 2-{1-[5-methyl-2-(tricyclo[3.3.1.1^3′]dec-1-ylmethyl)pyrazolo[1,5-a]pyrimidin-7-yl]piperidin-2-yl}ethanol]"
9,> 10000,"Cc1cc(N2CC[C@H]2C(N)=O)n2nc(C(C)c3ccc(C(F)(F)F)cc3)cc2n1 (stereo partly drawn) [Example 8-1, (2S)-1-(5-methyl-2-{1-[4-(trifluoromethyl)phenyl]ethyl}pyrazolo[1,5-a]pyrimidin-7-yl)azetidine-2-carboxamide]"
10,87,"Cc1cc(N2CCCCC2CCO)n2nc(C(C)c3ccc(C(F)(F)F)cc3)cc2n1 (centres unmarked) [Example 8-2, 2-[1-(5-methyl-2-{1-[4-(trifluoromethyl)phenyl]ethyl}pyrazolo[1,5-a]pyrimidin-7-yl)piperidin-2-yl]ethanol]"
11,420,"Cc1cc(N2CCC3(COC3)C2)n2nc(C(C)c3ccc(C(F)(F)F)cc3)cc2n1 (centres unmarked) [Example 8-3, 5-methyl-7-(2-oxa-6-azaspiro[3.4]oct-6-yl)-2-{1-[4-(trifluoromethyl)phenyl]ethyl}pyrazolo[1,5-a]pyrimidine]"
12,827,"Cc1cc(N2CC3(CCOCC3)C2)n2nc(C(C)c3ccc(C(F)(F)F)cc3)cc2n1 (centres unmarked) [Example 8-4, 5-methyl-7-(7-oxa-2-azaspiro[3.5]non-2-yl)-2-{1-[4-(trifluoromethyl)phenyl]ethyl}pyrazolo[1,5-a]pyrimidine]"
13,365,"Cc1cc(N2CCC[C@@H](O)C2)n2nc(C(C)c3ccc(C(F)(F)F)cc3)cc2n1 (stereo partly drawn) [Example 8-5, (3R)-1-(5-methyl-2-{1-[4-(trifluoromethyl)phenyl]ethyl}pyrazolo[1,5-a]pyrimidin-7-yl)piperidin-3-ol]"
14,509,"Cc1cc(NC2CC(F)C2)n2nc(C(C)c3ccc(C(F)(F)F)cc3)cc2n1 (centres unmarked) [Example 8-6, N-(3-fluorocyclobutyl)-5-methyl-2-{1-[4-(trifluoromethyl)phenyl]ethyl}pyrazolo[1,5-a]pyrimidin-7-amine]"
15,2000,"CC(=O)N[C@H]1CCN(c2cc(C)nc3cc(C(C)c4ccc(C(F)(F)F)cc4)nn23)C1 (stereo partly drawn) [Example 8-7, N-[(3S)-1-(5-methyl-2-{1-[4-(trifluoromethyl)phenyl]ethyl}pyrazolo[1,5-a]pyrimidin-7-yl)pyrrolidin-3-yl]acetamide]"
16,746,"Cc1cc(NC2(C)CC2)n2nc(C(C)c3ccc(C(F)(F)F)cc3)cc2n1 (centres unmarked) [Example 8-8, 5-methyl-N-(1-methylcyclopropyl)-2-{1-[4-(trifluoromethyl)phenyl]ethyl}pyrazolo[1,5-a]pyrimidin-7-amine]"
17,344,"Cc1cc(N2CCCCC2CO)n2nc(C(C)c3ccc(C(F)(F)F)cc3)cc2n1 (centres unmarked) [Example 8-9, [1-(5-methyl-2-{1-[4-(trifluoromethyl)phenyl]ethyl}pyrazolo[1,5-a]pyrimidin-7-yl)piperidin-2-yl]methanol]"
18,> 10000,"Cc1cc(N2CC[C@H]2C(=O)O)n2nc(C(C)c3ccc(C(F)(F)F)cc3)cc2n1 (stereo partly drawn) [Example 8-10, (2S)-1-(5-methyl-2-{1-[4-(trifluoromethyl)phenyl]ethyl}pyrazolo[1,5-a]pyrimidin-7-yl)azetidine-2-carboxylic acid]"
19,378,"Cc1cc(N2CCC(F)CC2)n2nc(C(C)c3ccc(C(F)(F)F)cc3)cc2n1 (centres unmarked) [Example 8-11, 7-(4-fluoropiperidin-1-yl)-5-methyl-2-{1-[4-(trifluoromethyl)phenyl]ethyl}pyrazolo[1,5-a]pyrimidine]"
20,370,"Cc1cc(N2CCCC(F)C2)n2nc(C(C)c3ccc(C(F)(F)F)cc3)cc2n1 (centres unmarked) [Example 8-12, 7-(3-fluoropiperidin-1-yl)-5-methyl-2-{1-[4-(trifluoromethyl)phenyl]ethyl}pyrazolo[1,5-a]pyrimidine]"
21,2550,"Cc1cc(N2CCNC(=O)C2CCO)n2nc(C(C)c3ccc(C(F)(F)F)cc3)cc2n1 (centres unmarked) [Example 8-13, 3-(2-hydroxyethyl)-4-(5-methyl-2-{1-[4-(trifluoromethyl)phenyl]ethyl}pyrazolo[1,5-a]pyrimidin-7-yl)piperazin-2-one]"
22,593,"Cc1cc(NCC2CC(F)(F)C2)n2nc(C(C)c3ccc(C(F)(F)F)cc3)cc2n1 (centres unmarked) [Example 8-14, N-[(3,3-difluorocyclobutyl)methyl]-5-methyl-2-{1-[4-(trifluoromethyl)phenyl]ethyl}pyrazolo[1,5-a]pyrimidin-7-amine]"
23,570,"Cc1cc(N2CCC(F)(F)C2)n2nc(C(C)c3ccc(C(F)(F)F)cc3)cc2n1 (centres unmarked) [Example 8-15, 7-(3,3-difluoropyrrolidin-1-yl)-5-methyl-2-{1-[4-(trifluoromethyl)phenyl]ethyl}pyrazolo[1,5-a]pyrimidine]"
24,2180,"CC(=O)N[C@@H]1CCN(c2cc(C)nc3cc(C(C)c4ccc(C(F)(F)F)cc4)nn23)C1 (stereo partly drawn) [Example 8-16, N-[(3R)-1-(5-methyl-2-{1-[4-(trifluoromethyl)phenyl]ethyl}pyrazolo[1,5-a]pyrimidin-7-yl)pyrrolidin-3-yl]acetamide]"
25,760,"Cc1cc(N2CCCC(F)(F)C2)n2nc(C(C)c3ccc(C(F)(F)F)cc3)cc2n1 (centres unmarked) [Example 8-17, 7-(3,3-difluoropiperidin-1-yl)-5-methyl-2-{1-[4-(trifluoromethyl)phenyl]ethyl}pyrazolo[1,5-a]pyrimidine]"
26,746,"Cc1cc(N2CCCCC2=O)n2nc(C(C)c3ccc(C(F)(F)F)cc3)cc2n1 (centres unmarked) [Example 8-18, 1-(5-methyl-2-{1-[4-(trifluoromethyl)phenyl]ethyl}pyrazolo[1,5-a]pyrimidin-7-yl)piperidin-2-one]"
27,274,"Cc1cc(NC(C)(C)C)n2nc(C(C)c3ccc(C(F)(F)F)cc3)cc2n1 (centres unmarked) [Example 8-19, N-tert-butyl-5-methyl-2-{1-[4-(trifluoromethyl)phenyl]ethyl}pyrazolo[1,5-a]pyrimidin-7-amine]"
28,500,"Cc1cc(NC2CC(F)(F)C2)n2nc(C(C)c3ccc(C(F)(F)F)cc3)cc2n1 (centres unmarked) [Example 8-20, N-(3,3-difluorocyclobutyl)-5-methyl-2-{1-[4-(trifluoromethyl)phenyl]ethyl}pyrazolo[1,5-a]pyrimidin-7-amine]"
29,561,"Cc1cc(N2CCC3(CC2)COC3)n2nc(C(C)c3ccc(C(F)(F)F)cc3)cc2n1 (centres unmarked) [Example 8-21, 5-methyl-7-(2-oxa-7-azaspiro[3.5]non-7-yl)-2-{1-[4-(trifluoromethyl)phenyl]ethyl}pyrazolo[1,5-a]pyrimidine]"

# Source: patent US9828381B2, “Substituted pyrazolopyrimidines and method of use” (AbbVie Deutschland GmbH & Co. KG, priority 2015, dated 2017)
